Experimental data published in ChEMBL document CHEMBL5649166, “RIP3 induces apoptosis independent of pronecrotic kinase activity” (Mol Cell, 2014).

What was measured:
[1] = biological target: T1, Tyrosine-protein kinase ZAP-70 (Homo sapiens) (UniProt P43403); assay: Inhibition of human ZAP70 using poly[Glu:Tyr] (4:1) as substrate at 1 uM in presence of 32P-ATP by Hotspot assay relative to control; values are per cent of control
T1 sequence (whole entry): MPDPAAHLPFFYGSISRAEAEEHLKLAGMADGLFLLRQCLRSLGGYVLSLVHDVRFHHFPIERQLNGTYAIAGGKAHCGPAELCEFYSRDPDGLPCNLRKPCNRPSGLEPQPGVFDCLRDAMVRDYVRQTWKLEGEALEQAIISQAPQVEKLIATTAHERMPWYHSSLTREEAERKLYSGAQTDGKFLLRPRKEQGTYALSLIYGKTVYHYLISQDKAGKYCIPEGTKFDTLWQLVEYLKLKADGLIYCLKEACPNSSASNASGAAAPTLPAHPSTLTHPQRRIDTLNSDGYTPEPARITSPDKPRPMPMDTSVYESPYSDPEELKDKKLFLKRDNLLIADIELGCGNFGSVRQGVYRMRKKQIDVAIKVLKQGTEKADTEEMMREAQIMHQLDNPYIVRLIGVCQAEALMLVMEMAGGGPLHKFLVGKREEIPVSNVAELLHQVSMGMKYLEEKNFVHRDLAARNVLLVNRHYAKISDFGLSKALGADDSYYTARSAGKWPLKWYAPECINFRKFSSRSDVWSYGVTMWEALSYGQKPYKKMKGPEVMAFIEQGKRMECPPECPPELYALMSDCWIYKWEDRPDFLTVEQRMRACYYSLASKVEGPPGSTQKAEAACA

[2] = biological target: Mitogen-activated protein kinase 1 (Homo sapiens) (UniProt P28482); assay: Inhibition of human ERK2/MAPK1 using myelin basic protein as substrate at 1 uM in presence of 32P-ATP by Hotspot assay relative to control; values are per cent of control
Sequence of Mitogen-activated protein kinase 1 (Homo sapiens) (P28482 whole entry): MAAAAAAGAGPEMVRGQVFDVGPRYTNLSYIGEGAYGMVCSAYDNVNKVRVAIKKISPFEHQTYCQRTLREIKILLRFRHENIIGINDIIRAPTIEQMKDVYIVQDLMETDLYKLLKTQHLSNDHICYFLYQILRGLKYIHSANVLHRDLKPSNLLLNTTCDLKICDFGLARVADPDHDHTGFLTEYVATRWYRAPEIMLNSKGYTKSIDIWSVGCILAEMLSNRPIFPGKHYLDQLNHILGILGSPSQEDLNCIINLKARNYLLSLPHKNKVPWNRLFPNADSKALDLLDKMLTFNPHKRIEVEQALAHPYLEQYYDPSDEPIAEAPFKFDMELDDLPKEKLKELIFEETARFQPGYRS

[3] = biological target: T2, Ephrin type-A receptor 1 (Homo sapiens) (UniProt P21709); assay: Residual activity of human EPHA1 using poly[Glu:Tyr] (4:1) as substrate at 1 uM in presence of 32P-ATP by Hotspot assay relative to control
T2 sequence (whole entry): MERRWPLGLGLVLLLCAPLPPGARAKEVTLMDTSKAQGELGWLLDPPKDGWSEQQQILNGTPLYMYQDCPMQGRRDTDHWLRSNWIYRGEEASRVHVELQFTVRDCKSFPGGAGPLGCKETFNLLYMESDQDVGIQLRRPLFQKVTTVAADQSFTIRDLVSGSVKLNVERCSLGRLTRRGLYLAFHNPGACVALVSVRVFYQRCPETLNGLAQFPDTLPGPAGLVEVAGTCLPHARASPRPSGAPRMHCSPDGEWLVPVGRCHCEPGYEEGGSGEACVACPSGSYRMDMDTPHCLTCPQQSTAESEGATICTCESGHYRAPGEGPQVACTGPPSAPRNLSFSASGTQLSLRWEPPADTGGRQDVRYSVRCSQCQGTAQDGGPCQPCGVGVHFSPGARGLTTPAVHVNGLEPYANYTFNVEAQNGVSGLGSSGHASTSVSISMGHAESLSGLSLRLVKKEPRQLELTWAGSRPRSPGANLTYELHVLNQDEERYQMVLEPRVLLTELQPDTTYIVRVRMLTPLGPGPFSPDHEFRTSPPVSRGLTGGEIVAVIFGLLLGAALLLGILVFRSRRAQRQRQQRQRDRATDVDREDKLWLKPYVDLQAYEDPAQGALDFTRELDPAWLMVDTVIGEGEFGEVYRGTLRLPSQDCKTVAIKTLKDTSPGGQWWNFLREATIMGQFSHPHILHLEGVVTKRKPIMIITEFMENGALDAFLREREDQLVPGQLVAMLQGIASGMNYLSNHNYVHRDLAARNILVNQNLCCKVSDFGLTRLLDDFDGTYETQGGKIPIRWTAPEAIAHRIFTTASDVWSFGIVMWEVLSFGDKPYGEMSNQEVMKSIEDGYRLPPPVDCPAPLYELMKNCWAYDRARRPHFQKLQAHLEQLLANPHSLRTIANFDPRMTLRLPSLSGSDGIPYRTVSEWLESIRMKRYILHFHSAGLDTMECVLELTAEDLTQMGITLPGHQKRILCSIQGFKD

[4] = biological target: T3, Serine/threonine-protein kinase Nek11 (Homo sapiens) (UniProt Q8NG66); assay: Inhibition of human NEK11 using myelin basic protein as substrate at 1 uM in presence of 32P-ATP by Hotspot assay relative to control; values are per cent of control
T3 sequence (whole entry): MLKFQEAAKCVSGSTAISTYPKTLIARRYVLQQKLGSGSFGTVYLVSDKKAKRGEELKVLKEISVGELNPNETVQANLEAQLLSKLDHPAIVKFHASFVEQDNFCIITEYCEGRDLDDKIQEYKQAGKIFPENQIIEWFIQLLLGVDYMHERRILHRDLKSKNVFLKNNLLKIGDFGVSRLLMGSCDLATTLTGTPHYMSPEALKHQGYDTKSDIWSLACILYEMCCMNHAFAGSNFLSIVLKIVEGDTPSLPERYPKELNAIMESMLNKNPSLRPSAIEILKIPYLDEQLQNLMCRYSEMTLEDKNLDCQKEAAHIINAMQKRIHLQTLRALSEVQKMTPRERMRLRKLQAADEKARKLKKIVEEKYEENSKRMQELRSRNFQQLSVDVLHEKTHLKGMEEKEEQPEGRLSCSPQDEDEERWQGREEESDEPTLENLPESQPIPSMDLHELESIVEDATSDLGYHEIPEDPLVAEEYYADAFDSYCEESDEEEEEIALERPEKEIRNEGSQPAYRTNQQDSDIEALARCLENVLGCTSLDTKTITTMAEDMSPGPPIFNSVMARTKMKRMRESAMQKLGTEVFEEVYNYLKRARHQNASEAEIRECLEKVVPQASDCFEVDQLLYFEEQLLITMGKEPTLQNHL

[5] = biological target: SRSF protein kinase 3 (Homo sapiens) (UniProt Q9UPE1); assay: Inhibition of human MSSK1/STK23 using GRSRSRSRSR as substrate at 1 uM in presence of 32P-ATP by Hotspot assay relative to control; values are per cent of control
Sequence of SRSF protein kinase 3 (Homo sapiens) (Q9UPE1 whole entry): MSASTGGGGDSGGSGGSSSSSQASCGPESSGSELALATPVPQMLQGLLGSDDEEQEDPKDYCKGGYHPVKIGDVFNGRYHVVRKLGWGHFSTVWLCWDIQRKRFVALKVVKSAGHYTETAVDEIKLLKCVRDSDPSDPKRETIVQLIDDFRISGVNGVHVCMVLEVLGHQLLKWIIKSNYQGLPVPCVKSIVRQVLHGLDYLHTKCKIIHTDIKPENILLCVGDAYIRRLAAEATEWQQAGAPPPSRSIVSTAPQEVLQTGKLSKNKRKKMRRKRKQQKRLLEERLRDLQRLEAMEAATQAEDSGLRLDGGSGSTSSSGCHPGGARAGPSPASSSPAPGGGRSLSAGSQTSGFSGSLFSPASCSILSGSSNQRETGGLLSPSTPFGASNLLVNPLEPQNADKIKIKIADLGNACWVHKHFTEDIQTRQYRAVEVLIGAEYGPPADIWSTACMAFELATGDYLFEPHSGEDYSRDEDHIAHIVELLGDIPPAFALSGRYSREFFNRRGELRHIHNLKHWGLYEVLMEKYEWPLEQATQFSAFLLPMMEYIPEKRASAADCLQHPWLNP

In the case of `Cc1cc(-c2cnc(N)c3c(-c4ccc5scnc5c4)csc23)n(C)n1`, the residual activity [1] is reported as 89.8%, the residual activity [2] is reported as 109% and the residual activity [3] is reported as 56.5%. It also gave a residual activity [4] of 97.3% and a residual activity [5] of 93.7%.

For `CC(C)S(=O)(=O)c1ccc2nccc(Nc3ccc4scnc4c3)c2c1`, the residual activity [1] was 102%, the residual activity [2] was 94.6% and the residual activity [3] was 53.9%. The residual activity [4] was 89.5% and the residual activity [5] was 102%.

`CNC(=O)c1ccc2c(c1)ncn2-c1ccc(CC(=O)OC(C)(C)C)cc1` showed a residual activity [1] of 102%, a residual activity [2] of 99.8% and a residual activity [3] of 84.8%. The residual activity [4] was 102% and the residual activity [5] was 101%.
